Measured values taken from patent publication US11130741B2 (Bioimics AB, priority 2016, dated 2021).
In brackets after ≈: the same amount, converted by molar mass. Where two headings read alike, the source gives them in different places.

What was measured:
[1] = system: Staphylococcus aureus subsp. aureus (ATCC29213); test: MIC, broth microdilution (CLSI), Staphylococcus aureus subsp. aureus ATCC29213; type: cell-based
E. coli JW5503 = test: MIC, E. coli JW5503; type: cell-based; settings: Escherichia coli, JW5503, read-out: MIC E. coli JW5503
A. baumannii ATCC 17978 = test: MIC, A. baumannii ATCC 17978; type: cell-based; settings: Acinetobacter baumannii, ATCC17978
H. influenzae ATCC 49247 = test: MIC, H. influenzae ATCC 49247; type: cell-based; settings: Haemophilus influenzae, ATCC49247
[2] = system: Staphylococcus aureus (ATCC25923); test: MIC, broth microdilution (CLSI), Staphylococcus aureus ATCC25923
Protocol: (§1) Initial minimal inhibitory concentration (MIC) tests were made on two bacterial strains: • Escherichia coli (ATCC25922) • Staphylococcus aureus (ATCC25923).
Minimal Inhibitory Concentration (MIC)
(§2) MIC values were determined using the standard broth microdilution procedure based on the guidelines by the Clinical and Laboratory Standards Institute (CLSI). Briefly, the compounds were dissolved in DMSO to 10 mM. They were diluted in cation-adjusted Mueller-Hinton broth (CAMHB) to four times the highest concentration tested. A serial 2-fold dilution in CAMHB was done in microdilution plates. The inoculum of bacterial strain to be tested was prepared by making a suspension of colonies from an 18 to 24 hours old plate in CAMHB. The inoculum was diluted so that, after inoculation, each well contained approximately 5×10^5 CFU/mL. To a volume of 50 μl compound in CAMHB an equal volume of inoculum was added. The tray was sealed in a plastic bag and incubated at 35° C. for 16 to 20 hours. To aid in the detection of growth the dye resazurin was added to a final concentration 0.001% and incubated at room temperature for 1 h. Reduction of resazurin, and therefore bacterial growth, was seen as a change from blue to pink.

[3] = system: S. aureus MRSA ATCC 33591; test: MIC, S. aureus MRSA ATCC 33591; type: cell-based
S. pneumoniae ATCC 49619 = test: MIC, S. pneumoniae ATCC 49619; type: cell-based; settings: Streptococcus pneumoniae, ATCC49619
[4] = system: Pseudomonas aeruginosa (ATCC27853); test: microbe, parasite or virus in culture; type: cell-based; settings: read-out: MIC P. aeruginosa ATCC 27853
N. gonorrhoeae 612501 = test: MIC, N. gonorrhoeae 612501; type: cell-based; settings: Neisseria gonorrhoeae
[5] = system: Escherichia coli (ATCC25922); test: MIC, broth microdilution (CLSI), Escherichia coli ATCC25922
Protocol: as §1
Minimal Inhibitory Concentration (MIC)
as §2

[6] = system: Enterococcus faecalis (ATCC29212); test: MIC, broth microdilution (CLSI), Enterococcus faecalis ATCC29212; type: cell-based; settings: read-out: MIC E. faecalis ATCC 29212
K. pneumoniae ATCC 43816 = test: MIC, K. pneumoniae ATCC 43816; type: cell-based; settings: Klebsiella pneumoniae, ATCC43816
S. aureus ATCC 29213 = test: MIC, S. aureus ATCC 29213 + 50% HS; type: cell-based; settings: Staphylococcus aureus, ATCC29213
E. faecium ATCC 700221 = test: MIC, E. faecium ATCC 700221; type: cell-based
[7] = system: P. aeruginosa NTUH-974 (MDR); test: MIC, P. aeruginosa NTUH-974 (MDR); type: cell-based
[8] = system: E. coli RNase P RNA, M1 RNA; test: Inhibition of bacterial RNase P activity, IC50 determination (cleavage of pATSerUG by M1 RNA); type: biochemical; settings: NI = No inhibition
[9] = ATCC29213, Table 15, read-out: S. aureus ("wound") (MIC)
[10] = ATCC29213, Table 16, read-out: MIC S. aureus ATCC 29213
[11] = Pseudomonas aeruginosa, read-out: MIC P. aeruginosa NTUH-974 (MDR)
[12] = ATCC25923, read-out: S. aureus ("Clinical") MIC
[13] = Staphylococcus aureus; read-out: MIC S. aureus MRSA ATCC 33591
[14] = Pseudomonas aeruginosa; read-out: MIC P. aeruginosa NTUH-974 (MDR)
[15] = ATCC25922, read-out: E. coli MIC, Table 15, NI = No inhibition
[16] = ATCC25922, read-out: MIC E. coli ATCC 25922, Table 16
[17] = Enterococcus faecium, ATCC700221; read-out: MIC E. faecium ATCC 700221

Row | Compound | MIC [1, 9] [µg/mL] | MIC [1, 10] [µg/mL] | MIC (E. coli JW5503) [µg/mL] | MIC (A. baumannii ATCC 17978) [µg/mL] | MIC (H. influenzae ATCC 49247) [µg/mL] | MIC (S. pneumoniae ATCC 49619) [µg/mL] | MIC [4] [µg/mL] | MIC (N. gonorrhoeae 612501) [µg/mL] | MIC [6] [µg/mL] | MIC (K. pneumoniae ATCC 43816) [µg/mL] | MIC (S. aureus ATCC 29213) [µg/mL] | IC50 [8] [µM] | MIC [2, 12] [µg/mL] | MIC [3, 13] [µg/mL] | MIC [5, 15] [µg/mL] | also measured
1 | NCCNC(=O)c1ccc2c(c1)Sc1cc(C(F)(F)F)cc(NC3CCN(CCN)CC3)c1N2 [compound 255, N-(2-aminoethyl)-9-((1-(2-aminoethyl)piperidin-4-yl)amino)-7-(trifluoromethyl)-10H-phenothiazine-3-carboxamide trifluroroacetic acid] | 8 (≈ 16.2 µM) | 8 (≈ 16.2 µM) | 16 (≈ 32.4 µM) | 128 (≈ 259 µM) | 64 (≈ 129 µM) | 64 (≈ 129 µM) | 128 (≈ 259 µM) | 16 (≈ 32.4 µM) | 16 (≈ 32.4 µM) | 128 (≈ 259 µM) | 64 |  |  |  |  | MIC ([2]; ATCC25923, read-out: S. aureus ("Clinical") MIC, Table 15): 2 µg/mL (≈ 4.04 µM); MIC ([3]; Staphylococcus aureus, read-out: MIC S. aureus MRSA ATCC 33591): 16 µg/mL (≈ 32.4 µM); MIC ([5]; ATCC25922, read-out: E. coli MIC): 39 µg/mL (≈ 78.9 µM); MIC ([5]; ATCC25922, read-out: MIC E. coli ATCC 25922): 64 µg/mL (≈ 129 µM); MIC (E. faecium ATCC 700221; Enterococcus faecium, ATCC700221, read-out: MIC E. faecium ATCC 700221): 32 µg/mL (≈ 64.7 µM); MIC [7, 11]: 64 µg/mL (≈ 129 µM)
2 | NC1CCCC(C(=O)Nc2cc(C(F)(F)F)cc3c2Nc2ccc(-c4cc5ccccc5[nH]4)cc2S3)C1 (centres unmarked) [compound 242, N-(7-(1H-Indol-2-yl)-3-(trifluoromethyl)-10H-phenothiazin-1-yl)-3-aminocyclohexanecarboxamide] | 8 (≈ 15.3 µM) | 2 (≈ 3.83 µM) |  | 16 (≈ 30.6 µM) | 16 (≈ 30.6 µM) | 16 (≈ 30.6 µM) | > 128 | 2 (≈ 3.83 µM) |  |  | 128 | 3 | 4 (≈ 7.65 µM) | 2 (≈ 3.83 µM) |  | MIC [7, 14]: 64 µg/mL (≈ 122 µM)
3 | NC1CCCC(CNc2cc(C(F)(F)F)cc3c2Nc2ccccc2S3)C1 (centres unmarked) [compound 133, N-((3-Aminocyclohexyl)methyl)-3-(trifluoromethyl)-10H-phenothiazin-1-amine] | 81 (≈ 206 µM) | 4 (≈ 10.2 µM) | 8 (≈ 20.3 µM) | 16 (≈ 40.7 µM) | 16 (≈ 40.7 µM) | 32 (≈ 81.3 µM) | 128 (≈ 325 µM) | 2 (≈ 5.08 µM) | 8 (≈ 20.3 µM) | 32 (≈ 81.3 µM) | 128 | 19 | 3 (≈ 7.62 µM) | 4 (≈ 10.2 µM) | 13 (≈ 33 µM) | MIC [5, 16]: 32 µg/mL (≈ 81.3 µM); MIC (E. faecium ATCC 700221; [17]): 4 µg/mL (≈ 10.2 µM); MIC [7, 11]: 128 µg/mL (≈ 325 µM)
4 | NCCCN1c2ccc(-c3cc4ccccc4[nH]3)cc2Sc2cc(C(F)(F)F)ccc21 [compound 245, 3-(3-(1H-indol-2-yl)-7-(trifluoromethyl)-10H-phenothiazin-10-yl)propan-1-amine] | 1 (≈ 2.28 µM) | 2 (≈ 4.55 µM) | 8 (≈ 18.2 µM) | 16 (≈ 36.4 µM) | 4 (≈ 9.1 µM) | 16 (≈ 36.4 µM) | > 128 | 2 (≈ 4.55 µM) | 2 (≈ 4.55 µM) | 32 (≈ 72.8 µM) | 128 | 1 | 2 (≈ 4.55 µM) | 2 (≈ 4.55 µM) | 7 (≈ 15.9 µM) | MIC [5, 16]: 8 µg/mL (≈ 18.2 µM); MIC (E. faecium ATCC 700221; [17]): 1 µg/mL (≈ 2.28 µM); MIC [7, 14]: 64 µg/mL (≈ 146 µM)
5 | COC(=O)c1ccc2c(c1)Sc1cc(C(F)(F)F)cc(NC3CCN(CCN)CC3)c1N2 [compound 247, Methyl 9-((1-(2-aminoethyl)piperidin-4-yl)amino)-7-(trifluoromethyl)-10H-phenothiazine-3-carboxylate] | 8 (≈ 17.1 µM) |  |  |  |  |  |  |  |  |  |  | 16 | 4 (≈ 8.57 µM) |  | 4 (≈ 8.57 µM) | 
6 | CN(C)CCCN1c2ccc(-c3cc4ccccc4[nH]3)cc2Sc2cccnc21 [compound 135, 3-(7-(1H-Indol-2-yl)-10H-benzo[b]pyrido[2,3-e][1,4]thiazin-10-yl)-N,N-dimethylpropan-1-amine] | 8 (≈ 20 µM) |  |  |  |  |  |  |  |  |  |  | 24 to 32 | 6 (≈ 15 µM) |  | > 100 | 
7 | N#Cc1ccc2c(c1)Sc1cc(C(F)(F)F)cc(NC3CCN(CCN)CC3)c1N2 [compound 217, 9-((1-(2-Aminoethyl)piperidin-4-yl)amino)-7-(trifluoromethyl)-10H-phenothiazine-3-carbonitrile] | 4 (≈ 9.23 µM) |  |  |  |  |  |  |  |  |  |  | 10 | 2 (≈ 4.61 µM) |  | 3 (≈ 6.92 µM) | 
